{"source": "patent US20190375837A1", "about": "“IMMUNOCYTOKINE COMBINATION THERAPY” (priority 2017, published 2019)", "key": {"[1]": {"tested_on": "SKRC-52 renal cell carcinoma", "test": "Tumor therapy in SKRC-52 xenografts: compound 2 with L19-IL2", "assay_type": "in vivo, BALB/c nu/nu mice", "conditions": "day 17 after tumor implantation; compound 2 250 nmol/kg IV, L19-IL2 2.5 mg/Kg IV, single or combined", "text": "Animals were sacrificed when the termination criteria were reached."}, "[2]": {"tested_on": "SKRC-52 renal cell carcinoma", "conditions": "for anti-cancer activity compared to vehicle: 250 nmol/Kg IV per administration, n=4 per group, p<0.0001 for compounds 2 and 4; for tumor growth retardation compared with the other SMDCs: compound 2 vs compound 4", "description": "SKRC-52 cells were grown to 80% confluence and detached with Trypsin-EDTA 0.05% (Life Technologies). Cells were washed with Hank's Balanced Salt Solution (HBSS, pH 7.4) once, counted and re-suspended in HBSS to a final concentration of 5×10^7 cells/ml. Aliquots of 5×10^6 cells (100 μl of a suspension) were injected subcutaneously in the right flank of female athymic BALB/c nu/nu mice (6-8 weeks of age, Janvier)."}, "in vivo [3]": {"test": "in vivo", "conditions": "nude, mouse"}, "in vivo [4]": {"test": "in vivo", "parameters": "species or system BALB/c nu/nu mice", "conditions": "female, BALB/c nu/nu, mouse, iv, 30 nmol/kg, total radioactivity", "protocol": "(§1) Radiolabeling procedures with technetium-99m were performed following described procedures (Krall N, Pretto F, Mattarella M, Muller C, Neri D. A technetium 99m-labeled ligand of carbonic anhydrase IX selectively targets renal cell carcinoma in vivo. J Nucl Med 2016; and Cazzamalli S, Dal Corso A, Neri D. Acetazolamide serves as selective delivery vehicle for dipeptide-linked drugs to renal cell carcinoma. Mol Cancer Ther 2016). Briefly, compounds 8, 9 and 10 (60 nmol) in TBS pH 7.4 (50 μl) were separately mixed with SnCl2 (Sigma Aldrich, 200 μg) and sodium glucoheptonate (TCI, 20 mg) in H2O (150 μl). Tris-buffered saline at pH 7.4 (600 μl) was added and the resulting solution degassed for 5 min by bubbling with nitrogen gas. The eluate from a ^99mTc-generator (200 μl, ca. 200 MBq, Mallinckrodt) was added and the reaction mixture heated to 90° C. for 20 min After cooling to room temperature, analytic aliquots were analyzed by RP-HPLC (XTerra C18, 5% MeCN in 0.1% aq. TFA to 80% over 20 min on a Merck-Hitachi D-7000 HPLC system equipped with a Raytest Gabi Star radiodetector) to determine radiolabelling yields. ^99mTc incorporations >95% were routinely achieved.\n(§2) Mice were randomized (n=3 per group) and injected intravenously with radiolabelled preparations of compounds 8, 9 or 10 (1-3 MBq, 30 nmol/Kg). Mice were sacrificed 6 hours after the injection by CO2 asphyxiation and organs extracted, weighted and radioactivity measured with a Packard Cobra γ-counter. Values are expressed as % ID/g ±SD (FIG. 10B)."}, "SKRC-52 xenografts": {"tested_on": "SKRC-52 xenografts", "test": "in vivo", "parameters": "species or system BALB/c nu/nu mice", "conditions": "mouse, iv", "protocol": "as §1, §2"}, "[5]": {"tested_on": "SKRC-52 renal cell carcinoma", "test": "Tumor rechallenge of cured mice with SKRC-52, then treatment of regrowing tumors", "assay_type": "in vivo, BALB/c nu/nu mice", "conditions": "L19-IL2 2.5 mg/Kg alone; 3 mice", "protocol": "To determine whether the CAIX ligand armed with MMAE (compound 2, see example 1) in combination with L19-IL2 caused acquired protective immunity against the tumor, mice that were cured in the therapy experiment of Example 2 were injected with 5×10^6 cells (100 μl of a suspension) SKRC-52 cells/mouse 20 days after the treatment ended. […] Mice were rearranged in two groups and treated with either the compound 2 alone (250 nmol/Kg; 2 mice), or L19-IL2 (2.5 mg/Kg; 3 mice) alone (see the schedule in FIGS. 4A and 4B)."}, "renal cell carcinoma": {"tested_on": "renal cell carcinoma", "conditions": "18 patients with renal cell carcinoma; cited from earlier work"}}, "note": "Read-outs that look alike come from different tables or passages of the source.", "data": [{"compound": "CC[C@H](C)[C@@H]([C@@H](CC(=O)N1CCC[C@H]1[C@H](OC)[C@@H](C)C(=O)N[C@H](C)[C@@H](O)c1ccccc1)OC)N(C)C(=O)[C@@H](NC(=O)[C@H](C(C)C)N(C)C(=O)OCc1ccc(NC(=O)[C@H](CCCNC(N)=O)NC(=O)[C@@H](NC(=O)CCCCCN2C(=O)CC(SC[C@H](NC(=O)[C@H](CC(=O)O)NC(=O)[C@H](CCCNC(=N)N)NC(=O)[C@H](CC(=O)O)NC(=O)[C@H](CCCCn3cc(CCCC(=O)Nc4nnc(S(N)(=O)=O)s4)nn3)NC(=O)C[C@H](NC(=O)C[C@H](NC(=O)CCC(C)(c3ccc(O)cc3)c3ccc(O)cc3)C(=O)O)C(=O)O)C(=O)O)C2=O)C(C)C)cc1)C(C)C", "note": "(stereo partly shown) [compound 2, AAZ*-ValCit-MMAE]", "values": [{"measurement": "antitumor activity (FIG. 3)", "setting": "[1]", "value": "Potent antitumor activity"}, {"measurement": "durable complete response", "setting": "[2]; 250 nmol/Kg IV", "value": "no mice had a durable complete response"}, {"measurement": "tolerability (body weight changes, FIG. 9B)", "setting": "[2]; 250 nmol/Kg IV", "value": "very well tolerated"}, {"measurement": "anti-cancer activity compared to vehicle", "setting": "[2]", "value": "potent anti-cancer activity"}, {"measurement": "tumor growth retardation compared with the other SMDCs", "setting": "[2]; 250 nmol/Kg IV", "value": "most potent tumor growth retardation effect"}, {"measurement": "tumor growth retardation compared with the other SMDCs", "setting": "[2]; 250 nmol/Kg IV, listed as SMDC 2", "value": "superior antitumor activity"}, {"measurement": "therapeutic efficacy after presaturation with excess of free AAZ* (compound 7)", "setting": "[2]; 50-fold dose of AAZ* ligand (1.25 μmol/Kg) directly followed by compound 2 250 nmol/Kg", "value": "reduced significantly"}, {"measurement": "MTD", "setting": "in vivo [3]", "value": 0.25, "unit": "µmol/kg"}]}, {"compound": "CC[C@H](C)[C@@H]([C@@H](CC(=O)N1CCC[C@H]1[C@H](OC)[C@@H](C)C(=O)N[C@H](C)[C@@H](O)c1ccccc1)OC)N(C)C(=O)[C@@H](NC(=O)[C@H](C(C)C)N(C)C(=O)OCc1ccc(NC(=O)[C@H](CCCNC(N)=O)NC(=O)[C@@H](NC(=O)CCCCCN2C(=O)CC(SC[C@H](NC(=O)[C@H](CC(=O)O)NC(=O)[C@H](CCCNC(=N)N)NC(=O)[C@H](CC(=O)O)NC(=O)CCCCn3cc(CCCC(=O)Nc4nnc(S(N)(=O)=O)s4)nn3)C(=O)O)C2=O)C(C)C)cc1)C(C)C", "note": "(stereo partly shown) [compound 4, AAZ-ValCit-MMAE, reference compound]", "values": [{"measurement": "anti-cancer activity compared to vehicle", "setting": "[2]", "value": "potent anti-cancer activity"}]}, {"compound": "CC[C@H](C)[C@@H]([C@@H](CC(=O)N1CCC[C@H]1[C@H](OC)[C@@H](C)C(=O)N[C@H](C)[C@@H](O)c1ccccc1)OC)N(C)C(=O)[C@@H](NC(=O)[C@H](C(C)C)N(C)C(=O)OCc1ccc(NC(=O)[C@H](CCCNC(N)=O)NC(=O)[C@@H](NC(=O)CCCCCN2C(=O)CC(SC[C@H](NC(=O)[C@H](CC(=O)O)NC(=O)[C@H](CCCNC(=N)N)NC(=O)[C@H](CC(=O)O)NC(=O)[C@H](CCCCn3cc(CCCC(N)=O)nn3)NC(=O)C[C@H](NC(=O)C[C@H](NC(=O)CCC(C)(c3ccc(O)cc3)c3ccc(O)cc3)C(=O)O)C(=O)O)C(=O)O)C2=O)C(C)C)cc1)C(C)C", "note": "(stereo partly shown) [compound 6, NH2^+-ValCit-MMAE]", "values": [{"measurement": "anti-cancer activity compared to vehicle", "setting": "[2]", "value": "did not display a difference from the vehicle-treated group"}]}, {"compound": "CC(CCC(=O)N[C@@H](CC(=O)N[C@@H](CC(=O)N[C@@H](CCCCn1cc(CCCC(=O)Nc2nnc(S(N)(=O)=O)s2)nn1)C(=O)NCCCC[C@H](N)C(=O)N[C@@H](CC(=O)O)C(=O)N[C@@H](CS)C(=O)O)C(=O)O)C(=O)O)(c1ccc(O)cc1)c1ccc(O)cc1", "note": "[compound 8, AAZ*-^99mTc Chelator, metal not drawn]", "values": [{"measurement": "tissue uptake at 6 h", "setting": "in vivo [4]", "value": 40, "unit": "%ID/g"}, {"measurement": "tumor to blood ratio", "setting": "SKRC-52 xenografts", "value": "80:1"}]}, {"compound": "N[C@@H](CCCCNC(=O)[C@H](CC(=O)O)NC(=O)CCCCn1cc(CCCC(=O)Nc2nnc(S(N)(=O)=O)s2)nn1)C(=O)N[C@@H](CC(=O)O)C(=O)N[C@@H](CS)C(=O)O", "note": "[compound 9, AAZ-^99mTc Chelator, metal not drawn, reference compound]", "values": [{"measurement": "tissue uptake at 6 h", "setting": "in vivo [4]", "value": 18, "unit": "%ID/g"}]}, {"compound": "L19-IL2: immunocytokine in which the anti-EDB antibody L19 (scFv) is conjugated to IL-2, SEQ ID NO: 22", "values": [{"measurement": "second complete tumor regression of regrowing tumors", "setting": "[5]", "value": "second complete tumor regression for all 3 animals"}, {"measurement": "antitumor activity (FIG. 3)", "setting": "[1]", "value": "Potent antitumor activity"}, {"measurement": "objective responses", "setting": "renal cell carcinoma", "value": "no objective responses"}]}]}
